Experimental data from patent US11554182B2, “Macrocyclic complexes of alpha-emitting radionuclides and their use in targeted radiotherapy of cancer” (CORNELL UNIVERSITY, priority 2017, dated 2023).

Experiment: In vivo biodistribution of ^225Ac complexes after intravenous injection
Design: species or system C57BL/6 mice
Description: In Vivo Biodistribution of ^225Ac Complexes of Macropa and DOTA. All experiments were approved by the Institutional Animal Care Committee (IACC) of the University of British Columbia and were performed in accordance with the Canadian Council on Animal Care Guidelines. A total of 9 female C57BL/6 mice (6-8 weeks old, 20-25 g) were used for the biodistribution study of each radiometal complex, n=3 for each time point.
Macropa (100 μL of a 1 mg/mL solution in NH4OAc) was diluted with 387 μL of NH4OAc (1 M, pH 7), and an aliquot (203 μL) of ^225Ac(NO3)3 (˜157 kBq) was then added; the pH of this solution was adjusted to 6.5-7 by the addition of 1 M NaOH (210 μL, trace metal grade). After 5 min at ambient temperature, the reaction solution was analyzed by TLC (0.4 M pH 4 sodium citrate as the eluent), which confirmed >95% radiochemical yield. The reaction was allowed to proceed overnight, and the radiochemical yield was again confirmed to be >95% the following morning. At this time, mice were anesthetized by 2% isoflurane, and approximately 100 μL (10-15 kBq) of the [^225Ac(macropa)]^+ complex were injected into the tail vein of each mouse. After injection, mice were allowed to recover and roam freely in their cages, and were euthanized by CO2 inhalation at 15 min, 1 h, or 5 h (n=3 at each time point) post-injection. Blood was collected by cardiac puncture and placed into an appropriate test tube for scintillation counting. Tissues collected included heart, liver, kidneys, lungs, small intestine, large intestine, brain, bladder, spleen, stomach, pancreas, bone, thyroid, tail, urine, and feces. Tissues were weighed and then counted with a calibrated gamma counter (Packard, Cobra II model 5002) using three energy windows: 60-120 keV (window A), 180-260 keV (window B), and 400-480 keV (window C). Counting was performed both immediately after sacrifice and after 7 days; counts were decay corrected from the time of injection and then converted to the percentage of injected dose (% ID) per gram of tissue (% ID/g). No differences were noted between the data; therefore, the biodistributions are reported using the data acquired immediately using window A.
The biodistribution studies of [^225Ac(DOTA)]^− and ^225Ac(NO3)3 were carried out as described above for [^225Ac(macropa)]^+, with the following modifications. [^225Ac(DOTA)]^− was prepared by adding ^225Ac(NO3)3 (338 μL, 1.1 MBq) to a solution of DOTA (100 μg, 20 mg/mL in H2O) in NH4OAc (467 μL, 0.15 M, pH 7). The pH of the solution was adjusted to 7 using NH4OAc (150 μL, 1 M, pH 7) and the solution was heated at 85° C. for 45 min. RCY>99% was confirmed by TLC as described above. [^225Ac(DOTA)]^− was diluted with saline to a final concentration of 0.05 MBq/100 μL, and 100 μL were injected into each mouse. ^225Ac(NO3)3 (˜58 μL, 0.4 MBq) was diluted and injected in the same manner as [^225Ac(DOTA)]^−. One mouse that was to be euthanized at the 5 h time point in the [^225Ac(DOTA)]^− study died shortly after injection. In the same manner, one mouse that was to be euthanized at the 1 h time point in the ^225Ac(NO3)3 study died.
The in vivo stability [^225Ac(macropa)]^+ was examined by comparing its biodistribution to those of ^225Ac(NO3)3 and [^225Ac(DOTA)]^−. C57BL/6 mice were injected via tail vein with 10-50 kBq of each radiometal complex and were sacrificed after 15 min, 1 h, or 5 h. The amount of ^225Ac retained in each organ was quantified by gamma counting and reported as the percent of injected dose per gram of tissue (% ID/g). The results of these studies are compiled in Tables 1-3. Inadequate stability of an ^225Ac complex leading to the loss of radioisotope in vivo is manifested by the accumulation of ^225Ac in the liver, spleen, and bone of mice.^[11,12,32] […] The biodistribution profile of [^225Ac(macropa)]^+ (FIG. 3B) differs markedly from that of ^225Ac(NO3)3. […]

[1] = 15 min after i.v. injection, energy window A (60-120 keV)
[2] = 15 min after i.v. injection, energy window B (180-260 keV)
[3] = 15 min after i.v. injection, energy window C (400-480 keV)
[4] = 1 h after i.v. injection, energy window A (60-120 keV)
[5] = 1 h after i.v. injection, energy window B (180-260 keV)
[6] = 1 h after i.v. injection, energy window C (400-480 keV)
[7] = 5 h after i.v. injection, energy window A (60-120 keV)
[8] = 5 h after i.v. injection, energy window B (180-260 keV)
[9] = 5 h after i.v. injection, energy window C (400-480 keV)
[10] = i.v. injection, C57BL/6 mice, up to 5 h

O=C([O-])c1cccc(CN2CCOCCOCCN(Cc3cccc(C(=O)[O-])n3)CCOCCOCC2)n1.[225Ac+3] [[^225Ac(macropa)]^+]
% ID/g in bladder [1]: 46.74 % ID/g
% ID/g in blood [1]: 5.11 % ID/g
% ID/g in bone (femur + joint) [1]: 2.52 % ID/g
% ID/g in brain [1]: 0.26 % ID/g
% ID/g in feces [1]: 0.91 % ID/g
% ID/g in heart [1]: 2.19 % ID/g
% ID/g in kidneys [1]: 27.55 % ID/g
% ID/g in large intestines [1]: 2.40 % ID/g
% ID/g in liver [1]: 2.28 % ID/g
% ID/g in lungs [1]: 5.98 % ID/g
% ID/g in pancreas [1]: 1.46 % ID/g
% ID/g in small intestines [1]: 2.64 % ID/g
% ID/g in spleen [1]: 2.52 % ID/g
% ID/g in stomach [1]: 2.97 % ID/g
% ID/g in tail [1]: 8.84 % ID/g
% ID/g in thyroids [1]: 28.23 % ID/g
% ID/g in urine [1]: 1378.82 % ID/g
% ID/g in bladder [2]: 47.64 % ID/g
% ID/g in blood [2]: 5.23 % ID/g
% ID/g in bone (femur + joint) [2]: 2.69 % ID/g
% ID/g in brain [2]: 0.23 % ID/g
% ID/g in feces [2]: 1.04 % ID/g
% ID/g in heart [2]: 2.39 % ID/g
% ID/g in kidneys [2]: 27.86 % ID/g
% ID/g in large intestines [2]: 2.53 % ID/g
% ID/g in liver [2]: 2.17 % ID/g
% ID/g in lungs [2]: 5.83 % ID/g
% ID/g in pancreas [2]: 1.63 % ID/g
% ID/g in small intestines [2]: 2.59 % ID/g
% ID/g in spleen [2]: 2.55 % ID/g
% ID/g in stomach [2]: 3.29 % ID/g
% ID/g in tail [2]: 9.39 % ID/g
% ID/g in thyroids [2]: −2.22 % ID/g
% ID/g in urine [2]: 1541.60 % ID/g
% ID/g in bladder [3]: 64.68 % ID/g
% ID/g in blood [3]: 6.49 % ID/g
% ID/g in bone (femur + joint) [3]: 3.74 % ID/g
% ID/g in brain [3]: 0.17 % ID/g
% ID/g in feces [3]: 1.26 % ID/g
% ID/g in heart [3]: 2.87 % ID/g
% ID/g in kidneys [3]: 33.46 % ID/g
% ID/g in large intestines [3]: 3.02 % ID/g
% ID/g in liver [3]: 2.72 % ID/g
% ID/g in lungs [3]: 7.55 % ID/g
% ID/g in pancreas [3]: 3.00 % ID/g
% ID/g in small intestines [3]: 3.46 % ID/g
% ID/g in spleen [3]: 3.79 % ID/g
% ID/g in stomach [3]: 3.45 % ID/g
% ID/g in tail [3]: 11.75 % ID/g
% ID/g in thyroids [3]: −6.46 % ID/g
% ID/g in urine [3]: 2387.66 % ID/g
% ID/g in bladder [4]: 6.23 % ID/g
% ID/g in blood [4]: 0.40 % ID/g
% ID/g in bone (femur + joint) [4]: 0.31 % ID/g
% ID/g in brain [4]: 0.12 % ID/g
% ID/g in feces [4]: 0.28 % ID/g
% ID/g in heart [4]: 0.31 % ID/g
% ID/g in kidneys [4]: 13.36 % ID/g
% ID/g in large intestines [4]: 0.36 % ID/g
% ID/g in liver [4]: 0.75 % ID/g
% ID/g in lungs [4]: 0.51 % ID/g
% ID/g in pancreas [4]: 0.19 % ID/g
% ID/g in small intestines [4]: 1.10 % ID/g
% ID/g in spleen [4]: 0.51 % ID/g
% ID/g in stomach [4]: 0.41 % ID/g
% ID/g in tail [4]: 1.82 % ID/g
% ID/g in thyroids [4]: 3.18 % ID/g
% ID/g in urine [4]: 489.11 % ID/g
% ID/g in bladder [5]: 5.92 % ID/g
% ID/g in blood [5]: 0.39 % ID/g
% ID/g in bone (femur + joint) [5]: 0.17 % ID/g
% ID/g in brain [5]: 0.12 % ID/g
% ID/g in feces [5]: 0.27 % ID/g
% ID/g in heart [5]: 0.20 % ID/g
% ID/g in kidneys [5]: 12.97 % ID/g
% ID/g in large intestines [5]: 0.22 % ID/g
% ID/g in liver [5]: 0.70 % ID/g
% ID/g in lungs [5]: 0.54 % ID/g
% ID/g in pancreas [5]: 0.12 % ID/g
% ID/g in small intestines [5]: 0.94 % ID/g
% ID/g in spleen [5]: 0.23 % ID/g
% ID/g in stomach [5]: 0.33 % ID/g
% ID/g in tail [5]: 1.82 % ID/g
% ID/g in thyroids [5]: 0.10 % ID/g
% ID/g in urine [5]: 517.19 % ID/g
% ID/g in bladder [6]: 9.00 % ID/g
% ID/g in blood [6]: 0.54 % ID/g
% ID/g in bone (femur + joint) [6]: 0.70 % ID/g
% ID/g in brain [6]: 0.23 % ID/g
% ID/g in feces [6]: 0.69 % ID/g
% ID/g in heart [6]: 0.23 % ID/g
% ID/g in kidneys [6]: 17.38 % ID/g
% ID/g in large intestines [6]: 0.79 % ID/g
% ID/g in liver [6]: 1.08 % ID/g
% ID/g in lungs [6]: 0.84 % ID/g
% ID/g in pancreas [6]: 0.43 % ID/g
% ID/g in small intestines [6]: 1.62 % ID/g
% ID/g in spleen [6]: 0.48 % ID/g
% ID/g in stomach [6]: 0.17 % ID/g
% ID/g in tail [6]: 2.57 % ID/g
% ID/g in thyroids [6]: 8.34 % ID/g
% ID/g in urine [6]: 641.63 % ID/g
% ID/g in bladder [7]: 4.25 % ID/g
% ID/g in blood [7]: 0.01 % ID/g
% ID/g in bone (femur + joint) [7]: 0.05 % ID/g
% ID/g in brain [7]: 0.02 % ID/g
% ID/g in feces [7]: 3.46 % ID/g
% ID/g in heart [7]: 0.10 % ID/g
% ID/g in kidneys [7]: 0.74 % ID/g
% ID/g in large intestines [7]: 0.49 % ID/g
% ID/g in liver [7]: 0.39 % ID/g
% ID/g in lungs [7]: 0.01 % ID/g
% ID/g in pancreas [7]: 0.10 % ID/g
% ID/g in small intestines [7]: 0.29 % ID/g
% ID/g in spleen [7]: 0.11 % ID/g
% ID/g in stomach [7]: 0.01 % ID/g
% ID/g in tail [7]: 0.14 % ID/g
% ID/g in thyroids [7]: 0.10 % ID/g
% ID/g in urine [7]: 12.78 % ID/g
% ID/g in bladder [8]: 3.69 % ID/g
% ID/g in blood [8]: 0.00 % ID/g
% ID/g in bone (femur + joint) [8]: 0.02 % ID/g
% ID/g in brain [8]: −0.01 % ID/g
% ID/g in feces [8]: 3.49 % ID/g
% ID/g in heart [8]: −0.04 % ID/g
% ID/g in kidneys [8]: 0.78 % ID/g
% ID/g in large intestines [8]: 0.45 % ID/g
% ID/g in liver [8]: 0.36 % ID/g
% ID/g in lungs [8]: −0.05 % ID/g
% ID/g in pancreas [8]: −0.12 % ID/g
% ID/g in small intestines [8]: 0.29 % ID/g
% ID/g in spleen [8]: 0.09 % ID/g
% ID/g in stomach [8]: 0.04 % ID/g
% ID/g in tail [8]: 0.13 % ID/g
% ID/g in thyroids [8]: −6.94 % ID/g
% ID/g in urine [8]: 13.51 % ID/g
% ID/g in bladder [9]: 8.52 % ID/g
% ID/g in blood [9]: 0.04 % ID/g
% ID/g in bone (femur + joint) [9]: 0.08 % ID/g
% ID/g in brain [9]: −0.01 % ID/g
% ID/g in feces [9]: 5.27 % ID/g
% ID/g in heart [9]: 0.28 % ID/g
% ID/g in kidneys [9]: 1.07 % ID/g
% ID/g in large intestines [9]: 0.68 % ID/g
% ID/g in liver [9]: 0.55 % ID/g
% ID/g in lungs [9]: 0.15 % ID/g
% ID/g in pancreas [9]: 0.13 % ID/g
% ID/g in small intestines [9]: 0.42 % ID/g
% ID/g in spleen [9]: 0.43 % ID/g
% ID/g in stomach [9]: 0.13 % ID/g
% ID/g in tail [9]: 0.28 % ID/g
% ID/g in thyroids [9]: 19.89 % ID/g
% ID/g in urine [9]: 22.27 % ID/g
route of excretion (in words) (i.v. injection, C57BL/6 mice): Most of the injected dose was renally excreted
clearance from blood / mice (in words) [10]: rapidly cleared from mice
organ accumulation (in words) [10]: did not accumulate in any organ
